The test system of series [1] is Influenza A virus H1N1 (H1N1 A/WSN/33 virus). Put plainly: Influenza A virus H1N1 mouse infection model (in vivo drug efficacy). The settings on record: H1N1 A/WSN/33 infected BALB/c mice, 10 mg/kg oral twice a day Day 1 to Day 7, first dose 36 hr after infection.
Series [2] deals with Influenza virus A/Weiss/43 (H1N1) strain. Nature of the series: Influenza virus cytopathy (CPE) experiment. In kind it is cell-based.
Series [3] can be described thus: Solid stability test of crystal forms (high temperature, high humidity, light radiation, accelerated conditions; appearance, content, impurities, crystal form by XRPD). The following applies: for XPRD: crystal form found. In kind it is physicochemical. The text has this: High Performance Liquid Chromatograph (HPLC) The analytic method is as follows: [table] [table] […] The sample was placed under high temperature, high humidity and acceleration conditions. The bottle was sealed with an aluminum foil, and some small holes were pierced on the aluminum foil to ensure that the sample could fully contact with the ambient air. The sample placed under light radiation was placed upright at room temperature and open to the air. The sample was exposed to a light source, and radiated with sufficient energy prior to taking samples for detection. Samples were taken at various time points for analysis, and the detection results were compared with the initial detection results obtained at Day 0. The investigation items include appearance, content and impurities. […] The sample was placed under high temperature, high humidity and acceleration conditions. The bottle was sealed with an aluminum foil, and some small holes were pierced on the aluminum foil to ensure that the sample could fully contact with the ambient air. The sample placed under light radiation was placed upright at room temperature and open to the air. The sample was exposed to a light source, and radiated with sufficient energy prior to taking samples for detection. Samples were taken at various time points for analysis, and the detection results were compared with the initial detection results obtained at Day 0. The investigation items include appearance, content and impurities. […] Samples were taken at various time points, and the test results were compared with the initial test results obtained at Day 0. […] The investigation items include appearance, impurities, and crystal forms.

[4] abbreviates: Acceleration test (40° C./relative humidity 75%, open), Day 30.
The mark [5] stands for this setting: High humidity (room temperature/relative humidity 92.5%, open), Day 30.
Setting [6] is: High temperature (60° C., open), Day 30.
The mark [7] stands for this setting: Light radiation (total illumination 1.2 × 10^6 Lux · hr), Day 12.

As for `O=C(O)[C@H]1C2CCC(CC2)[C@@H]1Nc1nc(-c2n[nH]c3ncc(F)cc23)nc(C2CC2)c1F` [Compound 1], the “Rate of Weight Loss (Day 9)” value in series [1] (Day 9) worked out at 4.8%. Further, in series [1] (observed to Day 14), the “Survival Rate (%)” value is reported as 100%. The response in series [2] (120 h, MDCK cells, influenza virus A/Weiss/43 (H1N1), 5 days, CCK8 cell viability) was half-maximal at 0.013 nM (EC50). Also, the “effect in the experiment of inhibiting influenza virus replication at a cell level” value in series [2] (result in words) is recorded as “positive effect”.
On to `O=C(O)[C@H]1C2CCC(CC2)[C@@H]1Nc1nc(-c2n[nH]c3ncc(F)cc23)nc(C2CC2)c1F` [crystal form H], for which the Appearance result in series [3] (Acceleration test (40° C./relative humidity 75%, open), Day 5) is “Off-white solid”; in series [3] (setting [4]), “Off-white solid”; in series [3] (Day 0 (initial)) it was “Off-white solid”; in series [3] (High humidity (room temperature/relative humidity 92.5%, open), Day 5), “Off-white solid”; in series [3] (setting [5]) it was “Off-white solid”; in series [3] (High temperature (60° C., open), Day 5), “Off-white solid”. Also, the Appearance result is recorded as “Off-white solid” in series [3] (setting [6]); “Off-white solid” in series [3] (Light radiation (total illumination 1.2 × 10^6 Lux · hr), Day 5); “Yellowish solid” in series [3] (setting [7]). Further, the “Total Impurities (%)” value in series [3] (setting [4]) was determined as 2.0%; in series [3] (Day 0 (initial)), 1.8%; in series [3] (setting [5]), 1.9%; in series [3] (setting [6]), 2.0%; in series [3] (setting [7]) it was 1.9%. Besides, in series [3] (after the solid stability test conditions), the “change of crystal form (XRPD detection)” value was “does not change”. Also, the XPRD entry in series [3] (setting [4]), in series [3] (Day 0 (initial)), in series [3] (setting [5]), in series [3] (setting [6]) and in series [3] (setting [7]) was “Crystal form H” throughout. Further, the “change in total impurity content” value in series [3] (high temperature, high humidity, light radiation and accelerated experiments) was “almost no change”.

By EC50 is commonly meant the concentration that produces a half-maximal response. High values mean a less potent agent, low ones a more potent agent.

The values are drawn from patent US11535613B2 (GUANGDONG RAYNOVENT BIOTECH CO., LTD., priority 2018, dated 2022).
